survival, EC50 and CC50 data for one compound are collected here from ChEMBL document CHEMBL5523692, “Discovery of novel biaryl benzoxazepinones as dual-mode receptor-interacting protein kinase-1 (RIPK1) inhibitors” (Bioorg Med Chem, 2024).

Data set [1] relates to Mus musculus. In words: Anti-necroptic activity in TNF-alpha/Z-VAD-FMK-induced SIRS C57BL/6J mouse model assessed as survival rate at 2.5 mg/kg, po pre-administered via gavage for 1 hr followed by […] of Z-VAD-FMK stimulation for 15 mins and subsequent TNF-alpha stimulation for 45 mins and re-current […] of Z-VAD-FMK stimulation and measured after 60 hrs relative to control. It is filed as functional. Particulars: 62 h, time 3720 min.

The test system of data set [2] is HT-29. In words: Anti-necroptic activity against human HT-29 cells assessed as cell viability pretreated with compound followed by TNF-alpha/Smac mimetic/Z-VAD-FMK stimulation for 16 hrs by Cell Titer Glo assay. The data set is classed as functional, cell-based. (Cellular ATP, detected with luciferase, serves as a proxy for viable cell number.)
A short description of data set [3]: Cytotoxicity against human HT-29 cells by Cell Titer Glo assay. It is filed as toxicity, cell-based.

In the case of `CN1C(=O)[C@@H](NC(=O)c2nnc(Cc3ccccc3)[nH]2)COc2ccccc21` [GSK2982772], in data set [1], the survival at 2.5 mg/kg amounted to 50%. The EC50 in data set [2] amounted to 2.9 nM. The CC50 in data set [3] was > 100000 nM.

Usually EC50 stands for the concentration that produces a half-maximal response. For orientation: CC50 means the concentration at which the toxic effect on the cells reaches its halfway point. High values mean better tolerance by the cells, low ones harm at low concentration.
